US8518973B2, “Compounds having 4-pyridylalkylthio group as a substituent” (Santen Pharmaceutical Co., Ltd., priority 2003, dated 2013)

Columns and labels:
[1] = system: VEGF-induced HUVEC growth; experiment: VEGF-induced HUVEC growth reaction evaluation system (cell growth inhibitory action test); assay type: cell-based; conditions: Homo sapiens, 72 h, 20 μg/ml test compound solution added 5 μl per well (100 μl), VEGF solution 400 ng/ml 5 μl per well, three days, absorbance at 450 nm, read-out: Cell growth inhibition rate (%)
Protocol: Cell growth inhibitory action tests were carried out using a VEGF-induced HUVEC growth reaction evaluation system (HUVEC stands for human umbilical vein endothelial cells), which is one of widely-used methods of evaluating in vitro angiogenesis inhibitory effects of drugs.
As one of widely-used methods of evaluating angiogenesis inhibitory effects of drugs, a cell growth inhibitory action test using a VEGF-induced HUVEC growth reaction evaluation system was reported in Cancer Res., 59, 99-106(1999). According to the method described in the above-mentioned literature, cell growth inhibitory action tests of the present compounds were carried out, their cell growth inhibition rates were calculated, and angiogenesis inhibitory effects of the present compounds were evaluated using the obtained rates as indexes.
Each test compound was dissolved in dimethyl sulfoxide (hereinafter abbreviated as “DMSO”), and the obtained solution was diluted with commercially available phosphoric acid buffer solution (hereinafter abbreviated as “PBS”) to prepare a 20 μg/ml test compound solution.
HUVEC was suspended in a 0.5% fetal bovine serum (hereinafter abbreviated as “FBS”)-containing F12K medium to prepare a 2×10^4 cells/ml HUVEC suspension.
VEGF was dissolved in 0.1% bovine serum albumin-containing PBS, and the obtained solution was diluted with the 0.5% FBS-containing F12K medium to prepare a 400 ng/ml VEGF solution.
• 1) The HUVEC suspension was inoculated in each amount of 100 μl into each well of a 96-well plate coated with I type collagen (2×10^3 cells per well). • 2) One day after inoculation, the test compound solution was added in an amount of 5 μl per well. • 3) One hour after adding the test compound solution, the VEGF solution was added in an amount of 5 μl per well. • 4) Three days after adding the VEGF solution, cell counting kit-8(Dojin Chemical Co., Ltd.) was added in an amount of 10 μl per well. • 5) After three hours, the above-mentioned plate was attached to an absorptiometer (multi label counter ARVO), and absorbance at 450 nm of each well suspension (hereinafter referred to as “test compound suspension”) was measured. • 6) A test was carried out in the same manner as in 1) to 5) except that 1.0% DMSO was used instead of the test compound solution.
Incubation was carried out under conditions of 37° C., 5% carbon dioxide and 95% air in an incubator throughout the above-mentioned test steps.
Cell growth inhibition rates, which are indexes of angiogenesis inhibitory effects, were calculated by the following calculation equation.

[2] = system: rat choroidal neovascularization model; experiment: Neovascularization incidence test using laser-induced rat choroidal neovascularization model; assay type: in vivo; conditions: po, 168 h; Brown Norway rat, krypton laser photocoagulation, 30 mg/kg/day orally once a day for seven days, ratio to vehicle administration group, average of three to four individuals and six to eight eyes; read-out: Ratio of neovascularization incidence rate (% of Control)
Protocol: Neovascularization incidence tests of the present compounds were carried out using a rat choroidal neovascularization model, which is one of widely-used methods of evaluating in vivo choroidal neovascularization inhibitory effects of drugs.
As one of widely-used methods of evaluating choroidal neovascularization inhibitory effects of drugs, a neovascularization incidence test using rat choroidal neovascularization models was reported in Graefe's Arch. Cli. Exp. Ophthalmol., 235, 313-319(1997). According to the method described in the above-mentioned literature, neovascularization incidence tests of the present compounds were carried out, ratios of neovascularization incidence rates of present compounds administration groups were calculated to a neovascularization incidence rate of vehicle administration group (control group), and choroidal neovascularization inhibitory effects of the present compounds were evaluated using the obtained ratios as indexes.
A 1% aqueous methyl cellulose solution was added to each test compound to suspend it thereby to prepare a 6 mg/10 ml test compound suspension.
• 1) A 7:1 mixed solution (1 ml/kg) of a 5% ketamine hydrochloride injection and a 2% xylazine hydrochloride injection was administered intramuscularly to rats (Brown Norway, male, eight weeks old, weight: 200 to 250 g) to anesthetize them systemically. • 2) A tropicamide-phenylephrine hydrochloride ophthalmic solution (trade name: Mydrin-P) was instilled into eyes to cause mydriasis, and then photocoagulation was performed in a Bruch's membrane of each rat using a krypton laser photocoagulation apparatus. The laser irradiation was carried out at eight spots per eye sparsely avoiding thick retinal vessels in a posterior section of ocular fundus and focusing on the retinal deep site. Photocoagulation conditions were adjusted to 100 μm of spot size, […] of output and 0.1 sec. of coagulation time. • 3) After the photocoagulation, the ocular fundus was photographed to confirm photocoagulation (laser irradiation) sites. […] Method of Evaluation • 1) Seven days after the photocoagulation, 0.1 ml of a 10% aqueous fluorescein solution was injected into a tail vein of the rat, and fluorescein fundus photography was performed. • 2) Next, in the fluorescein fundus photography, a spot where fluorescence leak was not observed was judged as negative, and a spot where fluorescence leak was observed was judged as positive. Photocoagulation sites where a little fluorescence leak was observed were judged as positive when two sites are present. • 3) Neovascularization incidence rates were calculated according to the calculation equation 1. Ratios of the neovascularization incidence rates of the test compound administration groups to that of the vehicle administration group were calculated according to the calculation equation 2 from neovascularization incidence rates of respective administration groups.
The values are the average of three to four individuals and six to eight eyes.

B16 cells = experiment: Tumor growth inhibitory action test using mouse cancer model (B16 cells); assay type: in vivo; conditions: po, 240 h; C57BL/6 mouse, B16 cells intradermally, 100 mg/kg/day orally once a day, ten days after injection, average of nine mice; read-out: Tumor tissue weight inhibition rate (%)
Protocol: Tumor proliferation inhibitory action tests of the present compounds were carried out using a mouse cancer model, which is one of widely-used methods of evaluating in vivo anticancer effects of drugs.
As one of widely-used methods of evaluating anticancer effects of drugs, a tumor growth inhibitory action test using mouse cancer models was reported in Cancer Res., 59, 5209-5218(1999). According to the method described in the above-mentioned literature, tumor growth inhibitory action tests of the present compounds were carried out, their tumor tissue weight inhibition rates were calculated, and anticancer effects of the present compounds were evaluated using the obtained rates as indexes.
A 1% aqueous methyl cellulose solution was added to each test compound to suspend it with a sonicator thereby to prepare a 10 mg/ml test compound suspension.
Physiological saline was added to B16 cells to prepare a 3.3×10^7 cells/ml B16 cell suspension.
Calculation of Tumor Tissue Weight Inhibition Rate
Tumor tissue weight inhibition rates (the average of nine mice per group), which are indexes of anticancer effects were calculated, from the following calculation equation.

[3] = system: rat adjuvant arthritis model; experiment: Paw edema inhibitory action test using rat adjuvant arthritis model; assay type: in vivo; conditions: po, 504 h; Lewis rat, adjuvant-untreated (secondary inflammation) paw, 10 mg/kg/day orally once a day, 21 days after, average of eight rats; read-out: Paw edema inhibition rate (%)
Protocol: Paw edema inhibitory action tests of the present compounds were carried out using a rat adjuvant arthritis model, which is one of widely-used methods of evaluating in vivo antiarthritis effects of drugs.
As one of widely-used methods of evaluating antiarthritic effects of drugs, a paw edema inhibitory action test using rat adjuvant arthritis models is known. Paw edema inhibitory action tests of the present compounds were carried out, their paw edema inhibition rates were calculated, and antiarthritic effects of the present compounds were evaluated using the obtained rates as indexes.
A 1% aqueous methyl cellulose solution was added to each test compound to suspend it thereby to prepare a 2 mg/ml test compound suspension.
Liquid paraffin was added to Mycobacterium-butyricum to suspend it to prepare 6 mg/ml adjuvant.
Each paw edema inhibition rate of paw edema in an adjuvant-untreated paw (secondary inflammation paw) in each test compound administration group was calculated to paw edema in a secondary inflammation paw in a control group, and antiarthritic effects of the present compounds were evaluated using the obtained rates as indexes.
Paw edema rates were calculated from the following calculation equation 1, and then paw edema inhibition rates (the average of eight rats per group), which are indexes of the antiarthritic effects, were calculated from the calculation equation 2.

| SMILES | inhibition at 20 µg/mL (stock) [1] | response vs control in vivo at 30 mg/kg/day [2] | inhibition in vivo at 100 mg/kg/day (B16 cells) | inhibition in vivo at 10 mg/kg/day [3] |
| --- | --- | --- | --- | --- |
| O=C(Nc1ccc2ncccc2c1)c1cccnc1SCc1ccncc1 [1-21, 2-(4-Pyridylmethylthio)-N-(6-quinolyl)pyridine-3-carboxamide] | 99% | 15% | 65% | – |
| O=C(Nc1cc2ccccc2cn1)c1cccnc1SCc1ccncc1 [1-22, N-(3-Isoquinolyl)-2-(4-pyridylmethylthio)pyridine-3-carboxamide] | 100% | – | 45% | 27% |
| O=C(Nc1ccc2[nH]ncc2c1)c1cccnc1SCc1ccncc1 [1-23, N-(Indazol-5-yl)-2-(4-pyridylmethylthio)pyridine-3-carboxamide] | 100% | 26% | 57% | – |
| CC(C)(C)c1ccc(NC(=O)c2cccnc2SCc2ccncc2)cc1 [1-51, N-(4-tert-Butylphenyl)-2-(4-pyridylmethylthio)pyridine-3-carboxamide] | 98% | – | 59% | – |
| Cc1cc(NC(=O)c2ccccc2SCc2ccncc2)ccc1Cl [1-99, N-(4-Chloro-3-methylphenyl)-2-(4-pyridylmethylthio)benzamide] | 100% | – | 64% | – |
| O=C(Nc1ccc2c(c1)CCC2)c1cccnc1SCc1ccncc1 [1-136, N-(5-Indanyl)-2-(4-pyridylmethylthio)pyridine-3-carboxamide] | 100% | 38% | 53% | – |
| O=C(Nc1ccc(OC(F)(F)F)c(Cl)c1)c1cccnc1SCc1ccncc1 [1-137, N-(3-Chloro-4-trifluoromethoxyphenyl)-2-(4-pyridylmethylthio)pyridine-3-carboxamide] | 100% | 65% | 66% | 39% |
| O=C(Nc1ccc(SC(F)(F)F)cc1)c1cccnc1SCc1ccncc1 [1-158, 2-(4-Pyridylmethylthio)-N-(4-trifluoromethylthiophenyl)pyridine-3-carboxamide] | 100% | – | 76% | 22% |
| Cc1cc(C)cc(NC(=O)c2cccnc2SCc2ccnc(Br)c2)c1 [1-230, 2-(2-Bromopyridin-4-ylmethylthio)-N-(3,5-dimethylphenyl)pyridine-3-carboxamide] | 100% | – | 66% | – |
| O=C(Nc1ccc2cn[nH]c2c1)c1cccnc1SCc1ccncc1 [1-296, N-(Indazol-6-yl)-2-(4-pyridylmethylthio)pyridine-3-carboxamide] | 100% | 24% | 71% | – |
| Cc1cc(C)cc(NC(=O)c2cccnc2SCc2cc[n+]([O-])cc2)c1 [4-4, N-(3,5-Dimethylphenyl)-2-(1-oxopyridin-4-ylmethylthio)pyridine-3-carboxamide] | 100% | 26% | 77% | 21% |
| O=C(Nc1ccc2c(c1)CCC2)c1cccnc1SCc1cc[n+]([O-])cc1 [4-8, N-(5-Indanyl)-2-(1-oxopyridin-4-ylmethylthio)pyridine-3-carboxamide] | 98% | – | 80% | – |
| O=C(Nc1ccc(OC(F)(F)F)cc1)c1cccnc1SCc1cc[n+]([O-])cc1 [4-9, 2-(1-Oxopyridin-4-ylmethylthio)-N-(4-trifluoromethoxyphenyl)pyridine-3-carboxamide] | 100% | – | 77% | – |
| O=C(Nc1ccc(OC(F)(F)F)c(Cl)c1)c1cccnc1SCc1cc[n+]([O-])cc1 [4-11, N-(3-Chloro-4-trifluoromethoxyphenyl)-2-(1-oxopyridin-4-ylmethylthio)-pyridine-3-carboxamide] | 100% | – | 62% | – |
